Assay [1] concerns the target T1, CDK2 (Homo sapiens (Human), UniProt P24941). Nature of the assay: p-Cl-ANS displacement assay (fluorescent binding assay).
The target of assay [2] is T1, CDK2. Nature of the assay: Isothermal titration calorimetry (ITC). It is filed as binding.
Another assay concerns the target GST-tagged CDK2 (Homo sapiens (Human), UniProt P24941). Nature of the assay: Surface plasmon resonance (SPR). Conditions: read-out: SPR Kd (SSA). It is filed as binding. In general terms: Surface plasmon resonance follows binding to a sensor surface in real time, without labels.
The target of another assay is CDK2/cyclin A (Homo sapiens (Human), UniProt P24941). Nature of the assay: ADP-Glo enzymatic activity assay. The assay is classed as biochemical. On the technique in general: ADP-Glo turns the ADP formed in a reaction into a luminescent signal.

The record followed here is patent US20240002339A1, “THERAPEUTIC COMPOUNDS AND METHODS” (Regents of the University of Minnesota, priority 2022, published 2024).

As a reminder, the IC50 is the concentration at which inhibition is half-maximal. Low values mean greater potency, high ones weaker potency. Broadly, the Kd is the free concentration of one partner at which half of the binding sites on the other are occupied at equilibrium, for simple one-to-one binding.

Regarding `Cc1cc(NCCc2c[nH]c3ccccc23)c(C(=O)O)cc1[N+](=O)[O-]` [Example 6], on CDK2 [1], the IC50 is 4.2 µM. For the same molecule, binding at CDK2 [2] was characterised by a dissociation constant (Kd) of 5.7 µM. The corresponding values for `Nc1c([N+](=O)[O-])ccc(NCCc2c[nH]c3ccccc23)c1C(=O)O` [Example 7] are 4.1 µM and 4.4 µM. The like results for `O=C(O)c1c(O)cccc1NCCc1c[nH]c2ccccc12` [Example 8] were, in that order, 20 µM and 5.9 µM. The corresponding values for `O=C(O)c1c(NCCc2c[nH]c3ccccc23)ccc([N+](=O)[O-])c1O` [Example 9] are 0.66 µM and 0.36 µM. Molecule `O=C(O)c1cc([N+](=O)[O-])ccc1NCCc1c[nH]c2cccc(F)c12` [Example 17] registered a half-inhibitory concentration (IC50) on CDK2 [1] of 2.1 µM. The same measure, in the same setting: to `O=C(O)c1cc([N+](=O)[O-])ccc1NCCc1c[nH]c2ccc(F)cc12` [Example 19] belongs 2.5 µM; to `O=C(O)c1cc([N+](=O)[O-])ccc1NCCc1c[nH]c2c(F)cccc12` [Example 20], 6 µM. On the same count and under the same terms, to `COc1ccc2c(CCNc3ccc([N+](=O)[O-])cc3C(=O)O)c[nH]c2c1` [Example 23] belongs 1.5 µM; to `O=C(O)c1cc([N+](=O)[O-])ccc1NCCc1c[nH]c2cc(OC(F)(F)F)ccc12` [Example 25], 0.94 µM.

The molecule `O=C(O)c1cc(C(F)(F)F)ccc1NCCc1c(CO)[nH]c2ccccc12` [Example 27] showed an IC50 on CDK2 [1] of 0.63 µM. On the same count and under the same terms, the value for `O=C(O)c1cc(C(F)(F)F)ccc1NCCc1c[nH]c2ccc([N+](=O)[O-])cc12` [Example 28] was 0.66 µM; that for `N#Cc1ccc2[nH]cc(CCNc3ccc(C(F)(F)F)cc3C(=O)O)c2c1` [Example 29] was 6.2 µM; that for `O=C(O)c1cc(C(F)(F)F)ccc1NCCc1c[nH]c2c(O)cccc12` [Example 31] was 3.4 µM. Same read-out and setting: to `FC(F)(F)c1ccc(NCCc2c[nH]c3ccccc23)c(-c2nnn[nH]2)c1` [Example 33] belongs 6.6 µM. `O=C(O)c1cc(C(F)(F)F)ccc1NCCc1c[nH]c2cc(F)ccc12` [Example 34] showed an IC50 at CDK2 [1] of 0.17 µM. The Kd at CDK2 [2] stood at 0.21 µM. `O=C(O)c1cc(C(F)(F)F)ccc1NCCc1c[nH]c2cc(Cl)ccc12` [Example 35]: the IC50 on CDK2 [1] worked out at 0.092 µM; against CDK2/cyclin A, 0.088 µM. The results for the Kd on CDK2 [2] and on GST-tagged CDK2 were 0.031 µM and 0.024 µM, respectively. Take `FC(F)(F)c1ccc(NCCc2c[nH]c3cc(Br)ccc23)c(-c2nnn[nH]2)c1` [Example 37]: the IC50 on CDK2 [1] turned out to be 0.63 µM.

With `O=C(O)c1cc(SC(F)(F)F)ccc1NCCc1c[nH]c2ccccc12` [Example 40], the IC50 at CDK2 [1] stood at 0.15 µM.

Turning to `O=C(O)c1cc(F)c(F)cc1NCCc1c[nH]c2ccccc12` [Example 41], at CDK2 [1], the IC50 was determined as 2.4 µM.

The molecule `O=C(O)c1cc2c(cc1NCCc1c[nH]c3ccccc13)CCCC2` [Example 42] yielded an IC50 on CDK2 [1] of 6.8 µM.

Regarding `O=C(O)c1cc2ccccc2cc1NCCc1c[nH]c2ccccc12` [Example 43], the IC50 on CDK2 [1] amounted to 2.7 µM.

On CDK2 [1], `Cc1[nH]c2cc(Cl)cc(Cl)c2c1CCNc1ccc(C(F)(F)F)cc1C(=O)O` [Example 44] came in with an IC50 of 0.93 µM. Still for that read-out and setting: the value for `Cc1[nH]c2c(Cl)c(Cl)ccc2c1CCNc1ccc(C(F)(F)F)cc1C(=O)O` [Example 45] was 1.6 µM; that for `O=C(O)c1cc(C(F)(F)F)ccc1SCCc1c[nH]c2ccccc12` [Example 46] was 1 µM; that for `Cc1[nH]c2cc(F)ccc2c1CC(C)Nc1ccc(C(F)(F)F)cc1C(=O)O` (stereo not shown) [Example 47] was 0.17 µM.

Turning to `O=C(O)c1cc(OC(F)(F)F)ccc1NCCc1c[nH]c2cc(F)ccc12` [Example 48], at CDK2 [1], the IC50 was found to be 0.18 µM.

The molecule `CCOc1cc(NCCc2c[nH]c3cc(C#N)ccc23)c(C(=O)O)cc1OCC` [Example 62, 2-((2-(6-Cyano-1H-indol-3-yl)ethyl)amino)-4,5-diethoxybenzoic acid] yielded a half-inhibitory concentration (IC50) at CDK2 [1] of 0.77 µM. As to `O=C(O)c1cc(OC(F)(F)F)ccc1NCCc1c[nH]c2cc(Br)ccc12` [Example 63, 2-((2-(6-Bromo-1H-indol-3-yl)ethyl)amino)-5-(trifluoromethoxy)benzoic acid], the IC50 at CDK2 [1] is below 0.1 µM.

For `O=C(O)c1cc(SC(F)(F)F)ccc1NCCc1c(CO)[nH]c2ccccc12` [Example 64, 2-((2-(2-(Hydroxymethyl)-1H-indol-3-yl)ethyl)amino)-5-((trifluoromethyl)thio)benzoic acid], the concentration for half-maximal inhibition (IC50) at CDK2 [1] turned out to be 3.8 µM. The same measure, in the same setting: to `O=C(O)c1cc(SC(F)(F)F)ccc1NCCc1c(CO)[nH]c2cc(Br)ccc12` [Example 65, 2-((2-(6-Bromo-2-(hydroxymethyl)-1H-indol-3-yl)ethyl)amino)-5-((trifluoromethyl)thio)benzoic acid] belongs 0.34 µM; to `O=C(O)c1cc(SC(F)(F)F)ccc1NCCc1c[nH]c2cc(Br)ccc12` [Example 66, 2-((2-(6-Bromo-1H-indol-3-yl)ethyl)amino)-5-((trifluoromethyl)thio)benzoic acid], 0.17 µM. Still for that read-out and setting: the value for `N#Cc1ccc2c(CCNc3ccc(SC(F)(F)F)cc3C(=O)O)c[nH]c2c1` [Example 67, 2-((2-(6-Cyano-1H-indol-3-yl)ethyl)amino)-5-((trifluoromethyl)thio)benzoic acid] was below 0.1 µM. The same measure, in the same setting: the value for `Cc1c([N+](=O)[O-])ccc(NCCc2c[nH]c3ccccc23)c1C(=O)O` [Example 68, 6-((2-(1H-Indol-3-yl)ethyl)amino)-2-methyl-3-nitrobenzoic] was 4.9 µM; that for `COc1cc(NCCc2c[nH]c3ccccc23)c(C(=O)O)cc1Br` [Example 69, 2-((2-(1H-Indol-3-yl)ethyl)amino)-5-bromo-4-methoxybenzoic acid] was 28 µM.

`Cc1cc(C(=O)O)c(NCCc2c[nH]c3ccccc23)cc1Cl` [Example 70, 2-((2-(1H-Indol-3-yl)ethyl)amino)-4-chloro-5-methylbenzoic acid] registered an IC50 on CDK2 [1] of 11 µM. Further, the Kd on CDK2 [2] came out at 6.3 µM. Take `COc1cc(NCCc2c[nH]c3ccccc23)c(C(=O)O)cc1OC` [Example 71, 2-((2-(1H-Indol-3-yl)ethyl)amino)-4,5-dimethoxybenzoic acid]: binding at CDK2 [2] was characterised by a dissociation constant (Kd) of 10 µM. Still for that read-out and setting: to `O=C(O)c1cc2c(cc1NCCc1c[nH]c3ccccc13)OCCO2` [Example 73, 7-((2-(1H-Indol-3-yl)ethyl)amino)-2,3-dihydrobenzo[b][1,4]dioxine-6-carboxylic acid] belongs 30 µM.

In turn, `Cc1ccc(NCCc2c[nH]c3ccccc23)c(C(=O)O)c1` [Example 76, 2-((2-(1H-Indol-3-yl)ethyl)amino)-5-methylbenzoic acid] returned a Kd at CDK2 [2] of 36 µM.

Turning to `CCc1ccc(NCCc2c[nH]c3ccccc23)c(C(=O)O)c1` [Example 77, 2-((2-(1H-Indol-3-yl)ethyl)amino)-5-ethylbenzoic acid], the IC50 at CDK2 [1] is 18 µM. The molecule further registered a Kd at CDK2 [2] of 22 µM. Turning to `O=C(O)c1cc(-c2ccccc2)ccc1NCCc1c[nH]c2ccccc12` [Example 79, 4-((2-(1H-Indol-3-yl)ethyl)amino)-[1,1′-biphenyl]-3-carboxylic acid], the half-maximal inhibitory concentration (IC50) at CDK2 [1] amounted to 11 µM. Also, the equilibrium dissociation constant (Kd) at CDK2 [2] is above 100 µM. The corresponding values for `CC(C)(C)c1ccc(NCCc2c[nH]c3ccccc23)c(C(=O)O)c1` [Example 80, 2-((2-(1H-Indol-3-yl)ethyl)amino)-5-(tert-butyl)benzoic acid] are 21 µM and above 100 µM. The corresponding values for `CCCc1ccc(NCCc2c[nH]c3ccccc23)c(C(=O)O)c1` [Example 81, 2-((2-(1H-Indol-3-yl)ethyl)amino)-5-propylbenzoic acid] are 5.6 µM and 6.5 µM.

In turn, `CCSc1ccc(NCCc2c[nH]c3ccccc23)c(C(=O)O)c1` [Example 85, 2-((2-(1H-Indol-3-yl)ethyl)amino)-5-(ethylthio)benzoic acid] came in with a Kd on CDK2 [2] of 9.1 µM. Turning to `O=C(O)c1c(NCCc2c[nH]c3ccccc23)cccc1[N+](=O)[O-]` [Example 88, 2-((2-(1H-Indol-3-yl)ethyl)amino)-6-nitrobenzoic acid], the IC50 on CDK2 [1] is 94 µM. The affinity on CDK2 [2], expressed as Kd, was 79 µM. For `O=C(O)c1c(NCCc2c[nH]c3ccccc23)cccc1C(F)(F)F` [Example 89, 2-((2-(1H-Indol-3-yl)ethyl)amino)-6-(trifluoromethyl)benzoic acid], the IC50 on CDK2 [1] is 120 µM. Still for that read-out and setting: to `N#Cc1cccc(NCCc2c[nH]c3ccccc23)c1C(=O)O` [Example 90, 2-((2-(1H-Indol-3-yl)ethyl)amino)-6-cyanobenzoic acid] belongs 37 µM. On CDK2 [1], `O=Cc1ccc(NCCc2c[nH]c3ccccc23)c(C(=O)O)c1` [Example 91, 2-((2-(1H-Indol-3-yl)ethyl)amino)-5-formylbenzoic acid] showed an IC50 of 36 µM. The same measure, in the same setting: the value for `O=C(O)c1cc([N+](=O)[O-])ccc1NCCc1c(C(=O)O)[nH]c2ccccc12` [Example 93, 3-(2-((2-Carboxy-4-nitrophenyl)amino)ethyl)-1H-indole-2-carboxylic acid] was 16 µM; that for `O=C(O)c1cc(C(F)(F)F)ccc1NCCc1c[nH]c2cccc(O)c12` [Example 94, 2-((2-(4-Hydroxy-1H-indol-3-yl)ethyl)amino)-5-(trifluoromethyl)benzoic acid] was 51 µM; that for `O=C(O)c1cc(C(F)(F)F)ccc1NCCc1c[nH]c2cc(O)ccc12` [Example 95, 2-((2-(6-Hydroxy-1H-indol-3-yl)ethyl)amino)-5-(trifluoromethyl)benzoic acid] was 91 µM.
